Here are results for 32 compounds from patent publication US20110130380A1, “Heteroaryl Kinase Inhibitors” (priority 2009, published 2011).

Some results are limits rather than exact numbers.

The first assay deals with Cdk9/cyclinT1 (Homo sapiens, UniProt P50750). As to the kind of experiment: Cdk9/cyclinT1 IMAP Protocol (fluorescence polarization kinase assay). The following applies: Cdk9_cyclinT1_IC50, Table V; generated using one of the two Cdk9/cyclinT1 assays (IMAP or Alpha Screen), not stated which; ATP 6 uM. Background: Fluorescence polarisation rises when a labelled molecule tumbles more slowly, as on binding a larger partner.
Sequence of Cdk9/cyclinT1 (P50750 whole entry): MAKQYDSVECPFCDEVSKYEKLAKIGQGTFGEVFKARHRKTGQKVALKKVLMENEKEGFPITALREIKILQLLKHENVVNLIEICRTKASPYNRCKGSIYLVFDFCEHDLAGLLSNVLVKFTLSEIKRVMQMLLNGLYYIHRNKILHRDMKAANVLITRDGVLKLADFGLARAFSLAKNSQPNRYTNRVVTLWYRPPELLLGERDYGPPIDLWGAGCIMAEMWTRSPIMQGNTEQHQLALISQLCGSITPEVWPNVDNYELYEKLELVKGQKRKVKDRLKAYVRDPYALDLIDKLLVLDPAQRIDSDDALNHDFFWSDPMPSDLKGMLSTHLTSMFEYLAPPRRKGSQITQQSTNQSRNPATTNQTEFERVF
Sequence of Cdk9/cyclinT1 (O60563 whole entry partner): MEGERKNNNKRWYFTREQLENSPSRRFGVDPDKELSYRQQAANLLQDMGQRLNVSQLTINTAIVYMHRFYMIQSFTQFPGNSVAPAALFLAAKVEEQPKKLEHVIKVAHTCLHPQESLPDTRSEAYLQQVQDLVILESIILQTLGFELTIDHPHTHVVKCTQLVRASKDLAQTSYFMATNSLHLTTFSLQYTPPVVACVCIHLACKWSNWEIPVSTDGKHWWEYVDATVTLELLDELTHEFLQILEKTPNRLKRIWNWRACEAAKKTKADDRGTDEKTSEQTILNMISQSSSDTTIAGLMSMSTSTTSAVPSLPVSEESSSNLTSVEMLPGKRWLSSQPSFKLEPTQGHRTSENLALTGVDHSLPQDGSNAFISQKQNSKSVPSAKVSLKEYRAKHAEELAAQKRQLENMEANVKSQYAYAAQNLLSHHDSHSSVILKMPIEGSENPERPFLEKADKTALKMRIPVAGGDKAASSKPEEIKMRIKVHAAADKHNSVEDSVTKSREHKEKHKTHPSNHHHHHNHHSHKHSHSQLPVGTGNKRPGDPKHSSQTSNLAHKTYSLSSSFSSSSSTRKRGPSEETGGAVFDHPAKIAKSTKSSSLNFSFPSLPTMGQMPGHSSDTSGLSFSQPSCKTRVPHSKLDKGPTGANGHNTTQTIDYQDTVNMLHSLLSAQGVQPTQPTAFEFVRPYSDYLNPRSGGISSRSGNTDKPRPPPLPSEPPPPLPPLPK
Turning to `[2H]C([2H])(Nc1cccc(-c2cc(NC(=O)[C@H]3CNCCO3)ncc2Cl)n1)C1CCOCC1` [Example 180, (R)-Morpholine-2-carboxylic acid {5′-chloro-6-[(tetrahydro-pyran-4-yl(dideuteromethyl))-amino]-[2,4′]bipyridinyl-2′-yl}-amide], 0.02 µM corresponded to half-maximal inhibition (IC50). On the same count and under the same terms, the same measure for `O=C(Nc1cc(-c2cccc(NCC3CCOCC3)n2)c(Cl)cn1)C1CCOCC1` [Example 63, Tetrahydro-pyran-4-carboxylic acid {5′-chloro-6-[(tetrahydro-pyran-4-ylmethyl)-amino]-[2,4′]bipyridinyl-2′-yl}-amide]: 0.027 µM; for `CC1(C)C[C@H](CNc2ccc(Cl)c(-c3cc(NC(=O)[C@H]4CNCCO4)ncc3Cl)n2)CCO1` (single isomer, unassigned) [Example 156]: 0.004 µM. In the case of `O=C(Nc1cc(-c2cccc(NCc3ccccc3F)n2)c(Cl)cn1)[C@@H]1CCCNC1` [Example 51, (R)-Piperidine-3-carboxylic acid [5′-chloro-6-(2-fluoro-benzylamino)-[2,4′]bipyridinyl-2′-yl]-amide], the IC50 (commonly the concentration that inhibits the measured activity by half) came out at 0.01 µM. The compound `C[C@@H]1CC[C@@H](C(=O)Nc2cc(-c3cccc(NCC4CCOCC4)n3)ccn2)CN1` (racemic) [Example 224, (3R,6R)-/(3S,6S)-6-Methyl-piperidine-3-carboxylic acid {6-[(tetrahydro-pyran-4-ylmethyl)-amino]-[2,4′]bipyridinyl-2′-yl}-amide] gave a half-maximal inhibitory concentration (IC50) of 0.002 µM. This IC50 lies about 5-fold lower than the previous one. The compound `CS(=O)(=O)N1CCC[C@H](C(=O)Nc2cc(-c3cccc(NCC4CCCOC4)n3)c(Cl)cn2)C1` (stereo partly drawn) [Example 81, (S)-1-Methanesulfonyl-piperidine-3-carboxylic acid {5′-chloro-6-[(tetrahydro-pyran-3-ylmethyl)-amino]-[2,4′]bipyridinyl-2′-yl}-amide] yielded an IC50 of less than 0.008 µM. As for `O=C(Nc1cc(-c2cccc(NCC3CCCOC3)n2)c(Cl)cn1)[C@@H]1CCCNC1` (stereo partly drawn) [Example 18, (R)-Piperidine-3-carboxylic acid {5′-chloro-6-[(tetrahydro-pyran-3-ylmethyl)-amino]-[2,4′]bipyridinyl-2′-yl}-amide], the IC50 was less than 0.008 µM. Compound `CC1(C)CO[C@H](CNc2nc(-c3cc(NC(=O)[C@@H]4CCCNC4)ncc3Cl)ccc2F)CO1` (single isomer, unassigned) [Example 265] gave an IC50 of 0.001 µM. The compound `CC1(C)CC(CNc2cccc(-c3cc(NC(=O)[C@@H]4CCNC4)ncc3Cl)n2)CCO1` (stereo partly drawn) [Example 188, (R)-Pyrrolidine-3-carboxylic acid {5′-chloro-6-[(2,2-dimethyl-tetrahydro-pyran-4-ylmethyl)-amino]-[2,4′]bipyridinyl-2′-yl}-amide] displayed an IC50 of 0.001 µM. This lies in the single-digit nanomolar range. The compound `O=C(Nc1cc(-c2cccc(NCC3CCOCC3)n2)c(Cl)cn1)[C@H]1CCNC1` [Example 73, (S)-Pyrrolidine-3-carboxylic acid {5′-chloro-6-[(tetrahydro-pyran-4-ylmethyl)-amino]-[2,4′]bipyridinyl-2′-yl}-amide] returned an IC50 of 0.013 µM. Compared with the last compound, the IC50 is about 13-fold higher.

As to `COC[C@@H]1CC[C@H](C(=O)Nc2cc(-c3cccc(NCC4CCOCC4)n3)c(Cl)cn2)CN1` (racemic) [Example 220, (3S,6S)-/(3R,6R)-6-Methoxymethyl-piperidine-3-carboxylic acid {5′-chloro-6-[(tetrahydro-pyran-4-ylmethyl)-amino]-[2,4′]bipyridinyl-2′-yl}-amide], it took 0.014 µM to reach half-maximal inhibition (IC50). This IC50 and that of the compound before are within 1.5-fold of each other. With `O=C(Nc1cc(-c2cccc(NC[C@@H]3CCCO3)n2)c(Cl)cn1)[C@@H]1CCCNC1` [Example 27, (R)-Piperidine-3-carboxylic acid (5′-chloro-6-{[(S)-1-(tetrahydro-furan-2-yl)methyl]-amino}-[2,4′]bipyridinyl-2′-yl)-amide], the IC50 came out at 0.021 µM. Compound `O=C(Nc1cc(-c2nc(NCC3CCOCC3)ccc2Cl)c(Cl)cn1)[C@H]1CNC[C@H]1F` [Example 102, (3R,4S)-4-Fluoro-pyrrolidine-3-carboxylic acid {3,5′-dichloro-6-[(tetrahydro-pyran-4-ylmethyl)-amino]-[2,4′]bipyridinyl-2′-yl}-amide] yielded an IC50 of 0.009 µM. This IC50 is about 2.3-fold lower than that of the compound before.

In turn, `O=C(Nc1cc(-c2cccc(NCC3CC3)n2)c(Cl)cn1)[C@@H]1CCCNC1` [Example 20, (R)-Piperidine-3-carboxylic acid [5′-chloro-6-(cyclopropylmethyl-amino)-[2,4′]bipyridinyl-2′-yl]-amide] returned an IC50 of 0.044 µM. Consider `COC1(CNc2nc(-c3cc(NC(=O)[C@@H]4CCCNC4)ncc3Cl)ccc2F)CCOCC1` [Example 248, (R)-Piperidine-3-carboxylic acid {5′-chloro-5-fluoro-6-[(4-methoxy-tetrahydro-pyran-4-ylmethyl)-amino]-[2,4′]bipyridinyl-2′-yl}-amide], for which the IC50 stood at 0.003 µM. As to `CC1(C)C[C@H](CNc2nc(-c3cc(NC(=O)[C@@H]4CCCNC4)ncc3Cl)ccc2F)CCO1` (single isomer, unassigned) [Example 215], half-maximal inhibition (IC50) required 0.001 µM. This IC50 is about 3-fold lower than that of the compound before.

The compound `CC1(C)CCC(C(=O)Nc2cc(-c3cccc(NCC4CCOCC4)n3)c(Cl)cn2)CN1` (centres unmarked) [Example 206, 6,6-Dimethyl-piperidine-3-carboxylic acid {5′-chloro-6-[(tetrahydro-pyran-4-ylmethyl)-amino]-[2,4′]bipyridinyl-2′-yl}-amide] came in with a half-maximal inhibitory concentration (IC50) of 0.001 µM. This lies in the single-digit nanomolar range.

Consider `O=C(Nc1cc(-c2cccc(NCC3CCOCC3)n2)c(Cl)cn1)C1CCNCC1` [Example 7, Piperidine-4-carboxylic acid {5′-chloro-6-[(tetrahydro-pyran-4-ylmethyl)-amino]-[2,4′]bipyridinyl-2′-yl}-amide], for which 0.014 µM corresponded to half-maximal inhibition (IC50). Compared with the last compound, the IC50 is about 14-fold higher. The compound `O=C(Nc1cc(-c2cccc(NCCN3CCCC3=O)n2)c(Cl)cn1)[C@@H]1CCCNC1` [Example 32, (R)-Piperidine-3-carboxylic acid {5′-chloro-6-[2-(2-oxo-pyrrolidin-1-yl)-ethylamino]-[2,4′]bipyridinyl-2′-yl}-amide] had an IC50 of 0.019 µM. With `C[C@H]1CNC[C@H](C(=O)Nc2cc(-c3cccc(NCC4CCOCC4)n3)c(Cl)cn2)C1` (racemic) [Example 104, (3R,5R)-/(3S,5S)-5-Methyl-piperidine-3-carboxylic acid {5′-chloro-6-[(tetrahydro-pyran-4-ylmethyl)-amino]-[2,4′]bipyridinyl-2′-yl}-amide], the IC50 was determined as 0.046 µM. In turn, `O=C(Nc1cc(-c2cccc(NCC3CCOCC3)n2)c(Cl)cn1)[C@@H]1CC[C@H](C(F)(F)F)NC1` (racemic) [Example 160, (3R,6R)-/(3S,6S)-6-Trifluoromethyl-piperidine-3-carboxylic acid {5′-chloro-6-[(tetrahydro-pyran-4-ylmethyl)-amino]-[2,4′]bipyridinyl-2′-yl}-amide] showed an IC50 of 0.011 µM.

`CC(C)S(=O)(=O)N1CCC[C@H](C(=O)Nc2cc(-c3nc(NC[C@@H]4CCOC(C)(C)C4)ccc3Cl)c(Cl)cn2)C1` (single isomer, unassigned) [Example 172] gave an IC50 of 0.001 µM. Compared with the last compound, the IC50 is about 11-fold lower.

Compound `COCCOC[C@@H]1C[C@@H](C(=O)Nc2cc(-c3cccc(NCC4(C)CCOCC4)n3)c(Cl)cn2)CN1` [Example 258, (3R,5S)-5-(2-Methoxy-ethoxymethyl)-pyrrolidine-3-carboxylic acid {5′-chloro-6-[(4-methyl-tetrahydro-pyran-4-ylmethyl)-amino]-[2,4′]bipyridinyl-2′-yl}-amide] had an IC50 of 0.002 µM. Against the preceding compound, the IC50 is about 2-fold higher. For the compound `N[C@@H]1CCC[C@H](C(=O)Nc2cc(-c3cccc(NCC4CCOCC4)n3)c(Cl)cn2)C1` (racemic) [Example 59, (1S,3R)-/(1R,3S)-3-Amino-cyclohexanecarboxylic acid {5′-chloro-6-[(tetrahydro-pyran-4-ylmethyl)-amino]-[2,4′]bipyridinyl-2′-yl}-amide], the IC50 amounted to 0.009 µM. On to `O=C(Nc1cc(-c2cccc(NCc3ccccn3)n2)c(Cl)cn1)[C@@H]1CCCNC1` [Example 52, (R)-Piperidine-3-carboxylic acid {5′-chloro-6-[(pyridin-2-ylmethyl)-amino]-[2,4′]bipyridinyl-2′-yl}-amide], for which half-maximal inhibition (IC50) required 0.038 µM.

Take `CC(C)(C)OC(=O)N1CCC[C@@H](C(=O)Nc2cc(-c3cccc(NCC4CCOCC4)n3)c(Cl)cn2)C1` [Example 6, (R)-3-{5′-Chloro-6-[(tetrahydro-pyran-4-ylmethyl)-amino]-[2,4′]bipyridinyl-2′-ylcarbamoyl}-piperidine-1-carboxylic acid tert-butyl ester]: the IC50 was 0.092 µM. Turning to `O=C(Nc1cc(-c2cccc(NCC3CCOCC3)n2)c(Cl)cn1)[C@H]1CNC[C@H](C(F)(F)F)C1` (racemic) [Example 149, (3R,5R)-/(3S,5S)-5-Trifluoromethyl-piperidine-3-carboxylic acid {5′-chloro-6-[(tetrahydro-pyran-4-ylmethyl)-amino]-[2,4′]bipyridinyl-2′-yl}-amide], the IC50 turned out to be 0.031 µM. This IC50 lies about 3-fold lower than the previous one.

For `CN1CCCCC(C(=O)Nc2cc(-c3cccc(NCC4CCOCC4)n3)c(Cl)cn2)C1` (centres unmarked) [Example 199, 1-Methyl-azepane-3-carboxylic acid {5′-chloro-6-[(tetrahydro-pyran-4-ylmethyl)-amino]-[2,4′]bipyridinyl-2′-yl}-amide], 0.051 µM corresponded to half-maximal inhibition (IC50). Against the preceding compound, the IC50 is about 1.6-fold higher. `CC1(C)C[C@H](CNc2cccc(-c3cc(NC(=O)[C@H]4CNCCO4)ncc3Cl)n2)CCO1` (single isomer, unassigned) [Example 130] registered an IC50 of less than 0.008 µM.

Regarding `C[C@@H]1CNC[C@H](C(=O)Nc2cc(-c3cccc(NCC4CCOCC4)n3)c(Cl)cn2)C1` (single isomer, unassigned) [Example 128], the IC50 stood at 0.001 µM.

The assay is the same for the next values; noted with them: Cdk9_cyclinT1_IC50, generated using one of the two Cdk9/cyclinT1 assays (IMAP or Alpha Screen), not specified per value; ATP 6 uM.
`O=C(Nc1cc(-c2cc(NCC3CCOCC3)cnc2Cl)c(Cl)cn1)[C@H]1CNCCO1` [Example 314, (R)-Morpholine-2-carboxylic acid {2,5′-dichloro-5-[(tetrahydro-pyran-4-ylmethyl)-amino]-[3,4′]bipyridinyl-2′-yl}-amide] registered an IC50 of 0.003 µM. As for `COc1cncc(-c2cc(NC(=O)[C@@H]3CCCNC3)ncc2Cl)c1` [Example 307, (R)-Piperidine-3-carboxylic acid (5′-chloro-5-methoxy-[3,4′]bipyridinyl-2′-yl)-amide], the IC50 worked out at 0.239 µM.
